From patent US20250084097A1, “MACROCYCLIC AMIDE COMPOUNDS AND APPLICATION THEREOF” (Medshine Discovery Inc., priority 2021, published 2025)

Legend:
[1] = tested on: Ba/F3-FL-EGFR(L858R/T790M/C797S) phosphorylation; assay: Inhibition of EGFR phosphorylation in cells, Western Blot; format: cell-based; details: p-EGFR, 4 h incubation, read-out: Cell half-maximal inhibition concentration IC50 Ba/F3-FL-EGFR(L858R/T790M/C797S)
Description: (§1) Autophosphorylation of EGFR can activate its intracellular kinase pathway. In this assay, EGFR phosphorylation was quantified in order to detect the inhibitory effect of compounds on Ba/F3-FL-EGFR(L858R/T790M/C797S) and Ba/F3-FL-EGFR (del19-E746-A750/T790M/C797S) phosphorylation.
(§2) The cells in the logarithmic growth phase were taken and counted with a cell counter. The cell viability rate was required to be >90%. Cells were inoculated into a sterile 6-well plate with 2×10^6 cells per well, replenished with 1640 complete medium to 1998 μL, and the 6-well plate was incubated in a constant temperature incubator at 37° C. and 5% CO2.
(§3) The 6-well plate was taken out, and the cells were normal under microscope. In an ultra-clean bench, 2 μL of each of the prepared gradient diluted 1000× stock solution was added to the 6-well plate inoculated with cells, and the 6-well plate was gently shaken to distribute the compounds evenly.
(§4) The 6-well plate was incubated statically in a constant temperature incubator at 37° C., 5% CO2 for 4 h;
(§5) After the cells were cultured statically for 4 hours, the culture medium was collected, and centrifuged at 8000 rpm for 3 minutes. The cells were collected in a 1.5 mL EP tube. The supernatant was discarded, and the total protein was extracted;
(§6) Cells from each group were collected into 1.5 ml EP tubes and a certain volume of Lysis Buffer (RIPA:protease/phosphatase inhibitor=100:1) was added (˜66 μL per 2×10^6 cells, depending on the cell amount). After adding Lysis Buffer, the EP tubes were placed on ice quickly and vortexed using a vortexer to fully lyse the cells. Be careful not to vortex for too long, and quickly place the sample tube on ice to lysis, shaking every 10 min for three times. At the end of the lysis time, the EP tubes were centrifuged at 12000 rpm for 10 min in a pre-cooled centrifuge at 4° C. After centrifugation, the supernatant was transferred to new 1.5 ml EP tubes which were labeled.
(§7) Using the BCA Protein Concentration Assay Kit, protein quantification of the sample lysis supernatant was performed according to the kit instructions. After the protein concentration was determined, the lysis supernatant with the lowest concentration was used as the reference, and the rest of the lysis supernatants were diluted to that concentration using Lysis Buffer in a volume calculated according to the BCA standard curve. To the diluted lysis supernatant, the corresponding volume of 5× loading Buffer was added. The diluted solution was heated in a metal bath at 95° C. for 10 min, then placed on ice to be cooled, and stored in a refrigerator at −20° C.
(§8) The glass plates used for making glue were cleaned, and two glass plates were aligned the bottoms, put into the bracket, and fixed with clips. The separation gel according to the 10% separation gel formula was prepared, mixed well and then added to the glass plate. The addition was stopped until the separation gel reached about ¾ of the glass plate and the glue was pressed with 75% ethanol. After 90 minutes, the separation gel was solidified. The 75% ethanol was poured out. Filter paper was used to absorb the remaining ethanol solution on the glass plate. A 5% stacking gel was prepared, mixed evenly and added to the glass plate. Then a spiking comb was inserted. After 60 minutes, the glue was made.
(§9) The gel plate was fixed in an electrophoresis tank, and the inner tank was filled with 1× electrophoresis solution, while in the outer tank the electrophoresis solution was over the metal wire. The spiking comb was removed, the protein samples of Ba/F3-FL-EGFR (L858R/T790M/C797S) and Ba/F3-FL-EGFR (del19-E746-A750/T790M/C797S) cells were sampled 25 μg, and Protein Ladder was then added. Turning on the power supply, electrophoresis with a constant voltage of 70 V lasted for 30 min, electrophoresis was continued at constant voltage 86 V for 1 h 20 min until the bromophenol blue indicator band reached the bottom and electrophoresis was stopped. […]

[2] = tested on: Ba/F3-FL-EGFR (del19-E746-A750/T790M/C797S) phosphorylation; assay: as above; format: cell-based; details: p-EGFR, 4 h incubation, read-out: Cell half-maximal inhibition concentration IC50 Ba/F3-FL-EGFR (del19-E746-A750/T790M/C797S)
Description: as §1, §2, §3, §4, §5, §6, §7, §8, §9

SMILES	IC50 [1] [nM]	IC50 [2] [nM]
Cc1cc2cc(n1)-c1cnn(C)c1OCCC[C@@H](C)CN1/C(=N/C2=O)Nc2ccc(N=S3(=O)CCOCC3)cc21 [WX-013]	2.9	1.3
Cc1cc2cc(n1)-c1cnn(C)c1OCCC[C@@H](C)CN1/C(=N/C2=O)Nc2ccc(N=S(C)(C)=O)cc21 [WX-006]	3.4	0.6
Cc1cc2cc(n1)-c1cnn(C)c1OCCC[C@@H](C)CN1/C(=N/C2=O)Nc2ccc(N=S3(=O)CCCC3)cc21 [WX-010 (trifluoroacetate)]	2.3	0.8
Cc1cc2cc(n1)-c1cnn(C)c1OC[C@H]1CC[C@H](C1)CN1/C(=N/C2=O)Nc2ccc(N=S(C)(C)=O)cc21 (single isomer, unassigned) [WX-027A]	2.1	1.9
